Consider 13 compounds from patent publication US8598364B2, “Oligomer-protease inhibitor conjugates” (Nektar Therapeutics, priority 2007, dated 2013).

Read-outs that look alike come from different tables or passages of the source.

One series concerns CEM-SS cells. Put plainly: in vitro. As to the method:
(§1) Compounds were tested at a 1.0 μM high-test concentration in DMSO. CEM-SS cells were passaged in T-75 flasks prior to use in the antiviral assay. On the day preceding the assay, the cells were split 1:2 in order to assure they were in exponential growth phase at the time of infection. Total cell and viability quantification was performed using a hemacytometer and trypan blue exclusion. Cell viability was greater than 95% for the cells to be utilized in the assay. The cells were resuspended at 5×10^4 cells/mL in tissue culture medium and added to the drug-containing microtiter plates in a volume of 50 μL.
(§2) Each plate contains cell control wells (cells only), virus control wells (cells plus virus), compound cytotoxicity wells (cells plus compound only), compound colorimetric control wells (compound only), as well as experimental wells (compound plus cells plus virus). Samples were evaluated with triplicate measurements for antiviral efficacy and duplicate measurements for cytotoxicity. Six concentrations at half-log dilutions were used in order to determine the IC50 values and to measure cellular cytotoxicity, if detectable.
(§3) At assay termination, the assay plates were stained with the soluble tetrazolium-based dye MTS (CellTiter Reagent, Promega) to determine cell viability and quantify compound cytotoxicity. […] At termination of the assay, 20 μL of MTS reagent was added per well. The wells were incubated for four to six hours at 37° C. Adhesive plate sealers were used in place of the lids, the seal plate was inverted several times to mix the soluble formazan product and the plate was read spectrophotometrically at 490/650 nm with a Molecular Devices Vmax plate reader.

For the next series, the system named is HIV-1RF. Put plainly: Anti-HIV-1 efficacy in CEM-SS cells infected with HIV-1RF (MTS staining). Format: cell-based. The settings on record: for IC50: read-out: In vitro Activity IC50. The procedure:
as §1
The virus used was the lymphocytropic virus strain HIV-1RF. This virus was obtained from the NIH AIDS research and Reference Reagent Program and was grown in CEM-SS cells for the production of stock virus pools. For each assay, a pre-titered aliquot of virus was removed from the freezer and allowed to thaw slowly to room temperature in a biological safety cabinet. The virus was resuspended and diluted into tissue culture medium such that the amount of virus added to each well in a volume of 50 μL was the amount determined to give approximately 90% cell killing in six days post-infection.
as §2, §3

Another series can be described thus: in vitro. As to conditions: human. The procedure:
as §1, §2, §3

In a further series the target is T1, retroviral protease (Human immunodeficiency virus type 1 group M subtype B, UniProt P04585).
T1 construct: any small molecule that can reduce the activity of a retroviral protease
Put plainly: Cell-free assay of protease inhibitor conjugates. Format: biochemical. As to conditions: for IC50-fold change / IC90 fold change: relative to atazanavir.

Setting [1] is: Table 1, CEM-SS cells, HIV-1RF, 50% inhibition of virus replication, 1.0 μM high-test concentration.
Where [2] appears, read: Table 2, atazanavir conjugates, read-out: CEM-SS/HIV-1RF EC50.
The mark [3] stands for this setting: Table 4, CEM-SS/HIV-1RF, read-out: EC50.
The mark [4] stands for this setting: Human immunodeficiency virus 1, CEM-SS, Table 2, atazanavir conjugates, read-out: CEM-SS/HIV-1RF EC50.
The mark [5] stands for this setting: Human immunodeficiency virus 1, Table 4, CEM-SS/HIV-1RF, read-out: EC50.
Setting [6] is: IC50, Table 3, cell-free assay, atazanavir conjugates.
The mark [7] stands for this setting: Table 3, cell-free assay, atazanavir conjugates, read-out: IC50.
The mark [8] stands for this setting: Table 3, cell-free assay, atazanavir conjugates, read-out: IC90.

On to “15-di-m-PEG-7-NCO-Saquinavir [di-15-m-PEG-7-NCO-Saquinavir]”, for which the CC50 in the series on CEM-SS cells is above 1000 nM. In the series with HIV-1RF (setting [1]), the IC50 is 560 nM.
The like results for 15-m-PEG-7-NHCO-Saquinavir were, in that order, above 1000 nM and 50 nM.
26-m-PEG-3-O-Saquinavir yielded a CC50 in the series with CEM-SS cells above 1000 nM. The “In vitro Activity IC50” value with HIV-1RF (setting [1]) is reported as “no activity”.
The compound 26-m-PEG-7-O-Saquinavir showed a CC50 with CEM-SS cells above 1000 nM. Besides, in the series with HIV-1RF (setting [1]), the “In vitro Activity IC50” value is given as “no activity”.
In the series on CEM-SS cells, `Cc1cn([C@H]2C[C@H](N=[N+]=[N-])[C@@H](CO)O2)c(=O)[nH]c1=O` [AZT, reference compound] displayed a CC50 above 1000 nM. For the same compound, the EC50 was 1 nM in the series on HIV-1RF (setting [2]); 1 nM in the series with HIV-1RF (setting [3]); 2 nM in the series with HIV-1RF (Table 5, tipranavir conjugates in cell-based assay, read-out: CEM-SS/HIV-1RF EC50); 5 nM with HIV-1RF (Table 7, darunavir conjugates in cell-based assay, read-out: CEM-SS/HIV-1RF EC50).
`COC(=O)N[C@H](C(=O)N[C@@H](Cc1ccccc1)[C@@H](O)CN(Cc1ccc(-c2ccccn2)cc1)NC(=O)[C@@H](NC(=O)OC)C(C)(C)C)C(C)(C)C` [Atazanavir, atazanavir, reference compound] gave a CC50 in the series “in vitro” of 54900 nM. The EC50 with HIV-1RF (setting [4]) amounted to 12 nM. Moreover, the EC50 in the series with HIV-1RF (setting [5]) was determined as 12 nM. On retroviral protease, the IC90 was 31.8 nM. Also, inhibition at retroviral protease (setting [6]) was half-maximal at 6.92 nM (IC50). On retroviral protease (Table 3, cell-free assay), the IC50-fold change amounted to 1.0 and the IC90 fold change is reported as 1.0.
Turning to `CC(C)CN(C[C@@H](O)[C@H](Cc1ccccc1)NC(=O)O[C@H]1CO[C@H]2OCC[C@H]21)S(=O)(=O)c1ccc(N)cc1` [Darunavir, darunavir, reference compound], the EC50 in the series on HIV-1RF (Human immunodeficiency virus 1, CEM-SS, read-out: CEM-SS/HIV-1RF EC50) is below 0.7 nM.
In the series “in vitro”, `CC(C)(C)NC(=O)[C@@H]1C[C@@H]2CCCC[C@@H]2CN1C[C@@H](O)[C@H](Cc1ccccc1)NC(=O)[C@H](CC(N)=O)NC(=O)c1ccc2ccccc2n1` [Saquinavir, saquinavir, reference compound] had a CC50 above 100 nM. Besides, the half-inhibitory concentration (IC50) in the series with HIV-1RF (Human immunodeficiency virus 1, CEM-SS) was 2 nM.
For `CCC[C@@]1(CCc2ccccc2)CC(O)=C([C@H](CC)c2cccc(NS(=O)(=O)c3ccc(C(F)(F)F)cn3)c2)C(=O)O1` [Tipranavir, tipranavir, reference compound], the CC50 in the series “in vitro” stood at 30600 nM. For the same compound, the EC50 with HIV-1RF (Human immunodeficiency virus 1, CEM-SS, Table 5, tipranavir conjugates in cell-based assay, read-out: CEM-SS/HIV-1RF EC50) was 120 nM. For the same compound, at retroviral protease (IC50, Table 6, tipranavir conjugates in cell-free assay), half-maximal inhibition (IC50) was put at 7.2 nM.
`COCCOCCOCCOC(=O)NC(C(=O)NC(Cc1ccccc1)C(O)CN(Cc1ccc(-c2ccccn2)cc1)NC(=O)C(NC(=O)OCCOCCOCCOC)C(C)(C)C)C(C)(C)C` (stereo not shown) [di-mPEG-3-Atazanavir, di-mPEG3-Atazanavir] returned a CC50 in “in vitro” of 95700 nM. For the same compound, the EC50 with HIV-1RF (setting [4]) was found to be 38 nM. Besides, the EC50 with HIV-1RF (setting [5]) came to 38 nM. For the same compound, the IC90 on retroviral protease was 53.7 nM. Further, the IC50 on retroviral protease (setting [6]) stood at 12.7 nM. Further, on retroviral protease (Table 3, cell-free assay), the IC50-fold change is listed as 1.8 and the IC90 fold change was determined as 1.7.
Consider `COCCOCCOCCOCCOCCOCCOCCOC(=O)NC(C(=O)NC(Cc1ccccc1)C(O)CN(Cc1ccc(-c2ccccn2)cc1)NC(=O)C(NC(=O)OCCOCCOCCOCCOCCOCCOCCOC)C(C)(C)C)C(C)(C)C` (stereo not shown) [di-mPEG-7-Atazanavir, di-mPEG7-Atazanavir], for which the CC50 in the series on CEM-SS cells (human) and in the series “in vitro” was above 200000 nM throughout. For the same compound, the EC50 in the series with HIV-1RF (setting [4]) and in the series on HIV-1RF (setting [5]) was 8400 nM in each case. The compound also registered a 90% effect concentration (IC90) against retroviral protease of 39.9 nM. Also, inhibition against retroviral protease (setting [6]) was half-maximal at 10.9 nM (IC50). This compound also returned an IC50-fold change against retroviral protease (Table 3, cell-free assay) of 1.6. Further, the IC90 fold change on retroviral protease (Table 3, cell-free assay) is recorded as 1.3.
On to “di-mPEG5-Atazanavir [di-mPEG-5-Atazanavir]”, for which the CC50 in the series with CEM-SS cells was above 200000 nM. In addition, the EC50 in the series with HIV-1RF (setting [2]) came to 1100 nM. In the series with HIV-1RF (setting [3]), the EC50 came to 1100 nM. Also, the IC50 on retroviral protease (setting [7]) is 17.3 nM. Moreover, on retroviral protease (setting [8]), the IC90 was found to be 47.6 nM. At retroviral protease (Table 3, cell-free assay), this compound had an IC50-fold change of 2.5 and an IC90 fold change of 1.5.
For “di-mPEG6-Atazanavir [di-mPEG-6-Atazanavir]”, the CC50 in the series with CEM-SS cells is 159000 nM. In addition, in the series on HIV-1RF (setting [2]), the EC50 turned out to be 2500 nM. Further, in the series on HIV-1RF (setting [3]), the EC50 is 2500 nM. Further, the IC50 at retroviral protease (setting [7]) came to 15.6 nM. For the same compound, the IC90 on retroviral protease (setting [8]) stood at 67.8 nM. At retroviral protease (Table 3, cell-free assay), this compound came in with an IC50-fold change of 2.3 and an IC90 fold change of 2.1.
